Experimental data reported in patent US20120115867A1, “NEW CLASS OF HISTONE DEACETYLASE INHIBITORS” (DAC S.R.L., priority 2004, published 2012).

Tested on: HDAC (nuclear fraction of Hela cells)
Test: Assay of enzyme inhibition of HDAC (BIOMOL Kit, fluorescence)
Type: biochemical
Conditions: 30× diluted nuclear fraction of Hela cells; substrate 200 μM; 15 min at RT
Experimental: The in-vitro activity of HDAC inhibitors was assayed by means of a biochemical assay using a BIOMOL Kit, according to the instructions from the manufacturer (Biomolecular Research Laborator). Briefly, 15 μl of 30× diluted nuclear fraction of Hela cells, was diluted to 50 μl with the assay buffer containing the HDAC inhibitor and the substrate (lysine with acetylated amino on the side chain) at a concentration of 200 μM. The samples were incubated for 15 min at RT and then exposed to a developer (10 min at RT). In this last step a fluorophore was produced, whose fluorescence was measured using an excitation wavelength of 355 nm and an emission at 460 nm. The IC50 is calculated using GraphPad Software.
The reference HDAC inhibitors marked with (*) are those disclosed in the patent application WO2006/037761.

Row | SMILES | IC50
1 | O=C(/C=C/c1ccc(/C=C/C(=O)c2ccc(N3CCOCC3)cc2)c(F)c1)NO [Ref (*) 29, reference compound] | 2840 nM
2 | COc1cc(C(=O)/C=C/c2ccc(/C=C/C(=O)NO)cc2)ccc1CN1CCOCC1 [Ref (*) 48, reference compound] | 73.3 nM
3 | O=C(/C=C/c1cccc(/C=C/C(=O)c2cccc(Cl)c2)c1)NO [Ref (*)MC1672, reference compound] | 1460 nM
4 | O=C(/C=C/c1cccc(/C=C/C(=O)c2ccccc2F)c1)NO [Ref (*)MC1661, reference compound] | 130 nM
5 | O=C(/C=C/c1ccc(/C=C/C(=O)c2ccc(N3CCOCC3)cc2)cc1)NO [Ref (*) 41, reference compound] | 1360 nM
6 | O=C(/C=C/c1cccc(/C=C/C(=O)c2ccccc2Cl)c1)NO [Ref (*)MC1670, reference compound] | 389 nM
7 | O=C(/C=C/c1cccc(/C=C/C(=O)c2cccc(F)c2)c1)NO [Ref (*)MC1653, reference compound] | 1370 nM
8 | CN1CCN(c2cc(Cl)cc(C(=O)/C=C/c3cccc(/C=C/C(=O)NO)n3)c2)CC1 [Example 11, (E)-3-(6-{(E)-3-[3-Chloro-5-(4-methyl-piperazin-1-yl)-phenyl]-3-oxo-propenyl}-pyridin-2-yl)-N-hydroxy-acrylamide] | 29 nM
